# Reference: PubChem BioAssay (NCI)
#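 In this assay, cells in 96-well plates receive the compound at five concentrations for 48 hours. Endpoints are linearly interpolated between the surrounding concentrations. GI50: concentration for 50% inhibition of growth. TGI marks complete inhibition of growth.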
# Assays:
# Test in all cases: NCI-60 cell line screen, 48 h
# NCI-H460 lung = test system: NCI-H460 lung
# HL-60(TB) leukemia = test system: HL-60(TB) leukemia
# 786-0 renal = test system: 786-0 renal
# HCT-15 colon = test system: HCT-15 colon
# SN12C renal = test system: SN12C renal
# RPMI-8226 leukemia = test system: RPMI-8226 leukemia
# M14 melanoma = test system: M14 melanoma
# UACC-62 melanoma = test system: UACC-62 melanoma
# SNB-19 CNS = test system: SNB-19 CNS
# CAKI-1 renal = test system: CAKI-1 renal
# SK-MEL-5 melanoma = test system: SK-MEL-5 melanoma
# HOP-92 NSCLC = test system: HOP-92 NSCLC
# COLO 205 colon = test system: COLO 205 colon
# SF-295 CNS = test system: SF-295 CNS
# SK-OV-3 ovarian = test system: SK-OV-3 ovarian
# T-47D breast = test system: T-47D breast
# MOLT-4 leukemia = test system: MOLT-4 leukemia
# A549 NSCLC = test system: A549 NSCLC
# ACHN renal = test system: ACHN renal
# HCT-116 colon = test system: HCT-116 colon
# PC-3 prostate = test system: PC-3 prostate
# SK-MEL-28 melanoma = test system: SK-MEL-28 melanoma
# NCI-H226 lung = test system: NCI-H226 lung
# OVCAR-8 ovarian = test system: OVCAR-8 ovarian
# HS 578T breast = test system: HS 578T breast
# SW-620 colon = test system: SW-620 colon
# DU-145 prostate = test system: DU-145 prostate
# CCRF-CEM leukemia = test system: CCRF-CEM leukemia
# TK-10 renal = test system: TK-10 renal
# U251 CNS = test system: U251 CNS
# HT29 colon = test system: HT29 colon
# SF-268 CNS = test system: SF-268 CNS
# MDA-MB-435 = test system: MDA-MB-435
# RXF 393 renal = test system: RXF 393 renal
# A498 renal = test system: A498 renal
# MDA-MB-231 breast = test system: MDA-MB-231 breast
# SK-MEL-2 melanoma = test system: SK-MEL-2 melanoma
# MCF7 breast = test system: MCF7 breast
# UACC-257 melanoma = test system: UACC-257 melanoma
# SNB-75 CNS = test system: SNB-75 CNS
# UO-31 renal = test system: UO-31 renal
# OVCAR-4 ovarian = test system: OVCAR-4 ovarian
# HOP-62 NSCLC = test system: HOP-62 NSCLC
# NCI-H522 lung = test system: NCI-H522 lung
# MALME-3M melanoma = test system: MALME-3M melanoma
# LOX IMVI melanoma = test system: LOX IMVI melanoma
# SR leukemia = test system: SR leukemia
# NCI/ADR-RES ovarian = test system: NCI/ADR-RES ovarian
# IGROV1 ovarian = test system: IGROV1 ovarian
# SF-539 CNS = test system: SF-539 CNS
# HCC-2998 colon = test system: HCC-2998 colon
# EKVX NSCLC = test system: EKVX NSCLC
# BT-549 breast = test system: BT-549 breast
# K-562 leukemia = test system: K-562 leukemia
# KM12 colon = test system: KM12 colon
# OVCAR-5 ovarian = test system: OVCAR-5 ovarian
smiles,measurement,setting,value
CCNC(=O)Oc1ccc(/C(=C(/C)c2ccc(OC)cc2)c2ccc(OCCN3CCCCCC3)cc2)cc1,GI50,NCI-H460 lung,1.95 µM
same,TGI,NCI-H460 lung,6.91 µM
same,GI50,HL-60(TB) leukemia,1.39 µM
same,TGI,HL-60(TB) leukemia,4.59 µM
same,GI50,786-0 renal,1.86 µM
same,TGI,786-0 renal,6.78 µM
same,GI50,HCT-15 colon,1.57 µM
same,TGI,HCT-15 colon,6.68 µM
same,GI50,SN12C renal,5.55 µM
same,TGI,SN12C renal,12.1 µM
same,GI50,RPMI-8226 leukemia,1.18 µM
same,TGI,RPMI-8226 leukemia,3.21 µM
same,GI50,M14 melanoma,0.913 µM
same,TGI,M14 melanoma,1.83 µM
same,GI50,UACC-62 melanoma,1.79 µM
same,TGI,UACC-62 melanoma,6.33 µM
same,GI50,SNB-19 CNS,5.92 µM
same,TGI,SNB-19 CNS,12.2 µM
same,GI50,CAKI-1 renal,2.34 µM
same,TGI,CAKI-1 renal,8.3 µM
same,GI50,SK-MEL-5 melanoma,2.23 µM
same,TGI,SK-MEL-5 melanoma,8.13 µM
same,GI50,HOP-92 NSCLC,1.89 µM
same,TGI,HOP-92 NSCLC,9.17 µM
same,GI50,COLO 205 colon,1.07 µM
same,TGI,COLO 205 colon,2.38 µM
same,GI50,SF-295 CNS,1.15 µM
same,TGI,SF-295 CNS,3.44 µM
same,GI50,SK-OV-3 ovarian,5.01 µM
same,TGI,SK-OV-3 ovarian,11.1 µM
same,GI50,T-47D breast,1.23 µM
same,TGI,T-47D breast,7.88 µM
same,GI50,MOLT-4 leukemia,1.44 µM
same,TGI,MOLT-4 leukemia,5.06 µM
same,GI50,A549 NSCLC,3.88 µM
same,TGI,A549 NSCLC,10.3 µM
same,GI50,ACHN renal,6.04 µM
same,TGI,ACHN renal,12.2 µM
same,GI50,HCT-116 colon,2.57 µM
same,TGI,HCT-116 colon,8.68 µM
same,GI50,PC-3 prostate,2.75 µM
same,TGI,PC-3 prostate,9.67 µM
same,GI50,SK-MEL-28 melanoma,1.45 µM
same,TGI,SK-MEL-28 melanoma,4.48 µM
same,GI50,NCI-H226 lung,6.42 µM
same,TGI,NCI-H226 lung,14.6 µM
same,GI50,OVCAR-8 ovarian,5.72 µM
same,TGI,OVCAR-8 ovarian,12.2 µM
same,GI50,HS 578T breast,2.48 µM
same,TGI,HS 578T breast,11.3 µM
same,GI50,SW-620 colon,1.3 µM
same,TGI,SW-620 colon,3.28 µM
same,GI50,DU-145 prostate,6.76 µM
same,TGI,DU-145 prostate,13.2 µM
same,GI50,CCRF-CEM leukemia,2.25 µM
same,TGI,CCRF-CEM leukemia,33.4 µM
same,GI50,TK-10 renal,9.35 µM
same,TGI,TK-10 renal,16.5 µM
same,GI50,U251 CNS,2.55 µM
same,TGI,U251 CNS,8.87 µM
same,GI50,HT29 colon,1.66 µM
same,TGI,HT29 colon,6.08 µM
same,GI50,SF-268 CNS,6.69 µM
same,TGI,SF-268 CNS,15 µM
same,GI50,MDA-MB-435,3.69 µM
same,TGI,MDA-MB-435,10.3 µM
same,GI50,RXF 393 renal,1.3 µM
same,TGI,RXF 393 renal,5.03 µM
same,GI50,A498 renal,2.67 µM
same,TGI,A498 renal,9.65 µM
same,GI50,MDA-MB-231 breast,2.74 µM
same,TGI,MDA-MB-231 breast,9.28 µM
same,GI50,SK-MEL-2 melanoma,5.18 µM
same,TGI,SK-MEL-2 melanoma,11.2 µM
same,GI50,MCF7 breast,0.786 µM
same,TGI,MCF7 breast,7.41 µM
same,GI50,UACC-257 melanoma,1.06 µM
same,TGI,UACC-257 melanoma,2.76 µM
same,GI50,SNB-75 CNS,6.03 µM
same,TGI,SNB-75 CNS,12.9 µM
same,GI50,UO-31 renal,1.43 µM
same,TGI,UO-31 renal,5.53 µM
same,GI50,OVCAR-4 ovarian,5.16 µM
same,TGI,OVCAR-4 ovarian,11.7 µM
same,GI50,HOP-62 NSCLC,5.84 µM
same,TGI,HOP-62 NSCLC,12.3 µM
same,GI50,NCI-H522 lung,6.43 µM
same,TGI,NCI-H522 lung,13.5 µM
same,GI50,MALME-3M melanoma,1.1 µM
same,TGI,MALME-3M melanoma,2.57 µM
same,GI50,LOX IMVI melanoma,0.865 µM
same,TGI,LOX IMVI melanoma,1.91 µM
same,GI50,SR leukemia,1.06 µM
same,TGI,SR leukemia,2.76 µM
same,GI50,NCI/ADR-RES ovarian,4.41 µM
same,TGI,NCI/ADR-RES ovarian,11.1 µM
same,GI50,IGROV1 ovarian,5.42 µM
same,TGI,IGROV1 ovarian,12.5 µM
same,GI50,SF-539 CNS,2.08 µM
same,TGI,SF-539 CNS,7.74 µM
same,GI50,HCC-2998 colon,2.93 µM
same,TGI,HCC-2998 colon,9.29 µM
same,GI50,EKVX NSCLC,6.39 µM
same,TGI,EKVX NSCLC,13.5 µM
same,GI50,BT-549 breast,5.06 µM
same,TGI,BT-549 breast,10.9 µM
same,GI50,K-562 leukemia,1.22 µM
same,TGI,K-562 leukemia,3.37 µM
same,GI50,KM12 colon,8.88 µM
same,TGI,KM12 colon,16.7 µM
same,GI50,OVCAR-5 ovarian,6.48 µM
same,TGI,OVCAR-5 ovarian,12.8 µM
